Reference: US11547767B2, “99mTc-EDDA/HYNIC-iPSMA as a radiopharmaceutical for detecting the overexpression of prostate-specific membrane antigen” (INSTITUTO NACIONAL DE INVESTIGACIONES NUCLEARES, priority 2016, dated 2023)

What was measured:
[1] = assay type: physicochemical
Protocol: HYNIC-iPSMA (37.5 μg) was formulated as a lyophilized dosage form containing 10 mg of EDDA, 20 mg of tricine, 20 μg of stannous chloride and 50 mg of mannitol. This formulation, on being reconstituted with 1 mL of 0.2 M phosphate buffer solution, pH 7 and 1 mL of solution of sodium pertechnetate (^99mTcO4Na), obtained in situ from a generator of ^99Mo/^99mTc, produces the compound to be patented ^99mTc-EDDA/HYNIC-iPSMA (FIG. 1) with radiochemical purity greater than 98% determined by reverse-phase HPLC, which has the corresponding radiochromatogram (FIG. 3).
(§1) The radiopharmaceutical remains stable with radiochemical purity greater than 95%, 24 h after labeling. In-vitro tests of stability in human serum show binding to serum proteins of 8.3±2.1% and high radiochemical stability (>90%).

[2] = target: T1, PSMA overexpressed in prostate cancer cells (Homo sapiens, UniProt Q04609); assay: SPECT/PET imaging in patients with prostate cancer; assay type: in vivo; conditions: for detection of tumors and metastases (PET and SPECT image, FIG. 6): same patient with advanced metastatic prostate cancer given both radiopharmaceuticals
T1 construct: detect in vivo PSMA overexpressed in prostate cancer cells; from tissue; host or cells: tumours and metastases in prostate cancer patients (in vivo SPECT/PET)
T1 sequence (Q04609 whole entry): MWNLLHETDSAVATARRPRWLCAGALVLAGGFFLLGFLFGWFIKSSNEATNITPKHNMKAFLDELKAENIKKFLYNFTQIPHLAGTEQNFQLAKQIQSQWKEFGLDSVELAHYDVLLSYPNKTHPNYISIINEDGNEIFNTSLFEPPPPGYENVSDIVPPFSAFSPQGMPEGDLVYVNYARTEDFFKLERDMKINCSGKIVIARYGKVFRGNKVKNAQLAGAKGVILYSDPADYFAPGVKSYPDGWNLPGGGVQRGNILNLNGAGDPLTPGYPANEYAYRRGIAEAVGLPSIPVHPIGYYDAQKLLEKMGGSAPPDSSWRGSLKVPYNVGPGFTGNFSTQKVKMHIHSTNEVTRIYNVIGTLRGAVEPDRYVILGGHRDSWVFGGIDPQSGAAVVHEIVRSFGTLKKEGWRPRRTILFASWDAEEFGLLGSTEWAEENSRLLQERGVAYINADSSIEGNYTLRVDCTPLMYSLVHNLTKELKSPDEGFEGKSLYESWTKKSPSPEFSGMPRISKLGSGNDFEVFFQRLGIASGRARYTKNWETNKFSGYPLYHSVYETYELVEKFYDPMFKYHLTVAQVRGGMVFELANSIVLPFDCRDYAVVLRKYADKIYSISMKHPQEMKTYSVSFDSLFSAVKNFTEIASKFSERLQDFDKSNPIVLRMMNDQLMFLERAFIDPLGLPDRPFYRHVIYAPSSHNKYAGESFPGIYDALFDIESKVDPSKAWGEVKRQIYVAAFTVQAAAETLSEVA
From the text: (§2) This image confirms, and is the main evidence, that because of its increased properties of affinity owing to the lipophilicity of the incorporated HYNIC molecule, ^99mTc-EDDA/HYNIC-iPSMA is able to equal the high imaging sensitivity of the PET radionuclides in the detection of tumoral lesions that overexpress PSMA.

[3] = assay type: in vitro ADME, human
Protocol: as §1

[4] = human, in vivo
From the text: as §2

LNCaP tumors = tested on: LNCaP tumors; design: species or system mice; conditions: mouse, in vivo
From the text: as §2

balb-C laboratory mice = assay: toxicity in balb-C laboratory mice; assay type: in vivo; conditions: dose of 40 mg/kg
From the text: as §2

[5] = target: T2, PSMA protein (LNCaP cells) (Homo sapiens, UniProt Q04609); assay: affinity by studies of competence in PSMA-positive cancer cells (LNCaP); assay type: binding; conditions: competition in LNCaP cells
T2 construct: endogenous in cells; host or cells: LNCaP
T2 sequence (Q04609 whole entry): as above

| radiochemical purity 24 h after labeling (stability) [1] | radiochemical stability in human serum [3] [%] | mean effective dose [4] [mSv] | capture in the tumors (LNCaP tumors) [% ID/g] | Compound | ability to detect in vivo overexpressed PSMA (SPECT image, FIG. 5) ([2]; patient with prostate cancer) | detection of tumors and metastases (PET and SPECT image, FIG. 6) [2] | biokinetics (clearance and organ capture) [4] | route of elimination (LNCaP tumors) | toxicity or adverse effects (balb-C laboratory mice) | IC50 [5] [nM] |
| --- | --- | --- | --- | --- | --- | --- | --- | --- | --- | --- |
| greater than 95% | > 90 | 4±2 | 8.7±1.3 | 99mTc-ethylenediaminediacetic acid/hydrazinonicotinamide-inhibitor of prostate-specific membrane antigen [99mTc-EDDA/HYNIC-iPSMA] | confirming the ability of the radiopharmaceutical to detect in vivo PSMA overexpressed in prostate cancer cells | detect tumors and metastases of prostate cancer with high sensitivity | rapid clearance from the blood with greater capture and renal excretion, lower hepatic capture and high capture in the parathyroid, salivary and lacrimal glands | mainly with elimination by the renal route | – | – |
| – | – | – | – | O=C([O-])CN1CCN(CC(=O)[O-])CCN(CC(=O)NC[C@H]2CC[C@H](C(=O)N[C@@H](Cc3ccc4ccccc4c3)C(=O)NCCCC[C@H](NC(=O)N[C@@H](CCC(=O)O)C(=O)O)C(=O)O)CC2)CCN(CC(=O)[O-])CC1.[68Ga+3] [68Ga-PSMA-617, reference compound] | – | detect tumors and metastases of prostate cancer with high sensitivity | – | – | – | – |
| – | – | – | – | NNc1ccc(C(=O)N[C@@H](Cc2ccc3ccccc3c2)C(=O)NCCCC[C@H](NC(=O)N[C@@H](CCC(=O)O)C(=O)O)C(=O)O)cn1 [HYNIC-iPSMA, Glu-NH—CO—NH-Lys(β-naphthyl alanine)-HYNIC] | – | – | – | – | did not display toxicity or adverse effects | 2.9 ± 0.7 |
